# Bridges are numbered along the chain shown (N, C = ends). Where no end group is shown, it is not given here. [ ]: non-standard residue; d: D form.
# Columns and labels:
# p53 [1] = assay: Western blot for p53 in MCF7 cells treated with oligonucleotides; format: cell-based, human; conditions: MCF7 cells (FIG. 29A)
# mutant p53 (R248W) = assay: Western blot for mutant p53 in MIA-PaCa-2 cells treated with oligonucleotides; format: cell-based; conditions: p53 R248W (FIGS. 29A, 29B)
# Excerpt: FIGS. 29A-29C show data illustrating the effects of oligonucleotides of the present invention with respect to wild type and mutant p53. […] Oligonucleotide sequences were as follows: M3, SEQ ID NO:14; 14A/G, SEQ ID NO:20; 14U/G, SEQ ID NO:49; 15A, SEQ ID NO:21; 6A/G, SEQ ID NO:45; 6U/G, SEQ ID NO:46; 10A/G, SEQ ID NO:47; 10 U/G, SEQ ID NO:48.
# FIGS. 29A and 29B show the results of experiments exploring the effects of oligonucleotides of the present invention on wild type and mutant p53. Oligonucleotides M3, 14A/G, 15A, and 6U/G were used to treat MCF7 cells expressing wild type p53 and MIA-PaCa-2 cells expressing mutant p53 (R248W). […] The effect was limited to the 6U/G oligonucleotide. […] Oligonucleotide sequences were as follows: M3, SEQ ID NO:14; 14A/G, SEQ ID NO:20; 14U/G, SEQ ID NO:49; 15A, SEQ ID NO:21; 6A/G, SEQ ID NO:45; 6U/G, SEQ ID NO:46; 10A/G, SEQ ID NO:47; 10 U/G, SEQ ID NO:48.
# p53 [2] = assay: Western blot for p53 and downstream targets in MCF7 cells treated with peptides; format: cell-based, human; conditions: MCF7 cells; 2.5 μM; 18 hours (FIG. 32C)
# RKO cells = assay: RKO cell colony formation assay (peptides); format: cell-based, human; conditions: 5 μM, 3.125 ng/mL doxorubicin 48 hours (FIG. 34D)
# Experimental: (§1) For the experiments shown in FIG. 34D, RKO cells were seeded on a 6-well plate at a seed density of 2×10^3 cells per well. The following day the cells were treated with 5 μM Pen-Ctrl, 5 μM Pen-Pep23, or 5 μM Pen-Pep8. The following day, 3.125 ng/mL doxorubicin was added to the cells for 48 hours. Subsequently, the cell media was changed every 3 days until colonies were visible. The cells were fixed and stained with crystal violet.
# [3] = tested on: tumor cell colony formation; assay: Tumor cell colony formation assay, cell line not stated (FIGS. 13C, 20D); format: cell-based; conditions: with and without doxorubicin 6.25 ng/mL; versus Pen-Ctrl (FIG. 20D)
# HaCaT cells = assay: HaCaT cell colony formation assay; format: cell-based; conditions: HaCaT cells (mutant p53); 10 μM for 20 minutes then 0.5 ng/mL doxorubicin 18 hours (FIG. 37D)
# Experimental: For the experiments shown in FIG. 37D, HaCaT and MiaPaCa2 cells were grown in 6-well plates at 500 cells per well. The following day, 10 μM Pen-Ctrl (SEQ ID NO:10), Pen-Pep23 (SEQ ID NO:9), or Pen-Pep8 (SEQ ID NO:50) were added to the cells for 20 minutes followed by treatment with 0.5 ng/mL doxorubicin (for HaCaT cells) or 0.25 ng/mL doxorubicin (for miaPaCa2 cells) for 18 hours, then the media was changed to fresh DMEM. After colonies formed they were fixed (i.e., using 7:1 MeOH:glacial acetic acid) and stained with crystal violet.
# MCF7 cells = assay: MCF7 cell colony formation assay (peptides); format: cell-based, human; conditions: MCF7 cells; 5 μM; 6.25 ng/mL doxorubicin 48 hours (FIG. 34C)
# Experimental: In order to test the effect of the RBM38 and eIF4E peptides on cancer cell colony formation, MCF7 cells were seeded in 6-well plates at a density of 1×10^3 cells per well. The following day, cells were treated with peptides. In order to form stable complexes with PEP1, 100 μl of serum-free DMEM was added to individual Eppendorf tubes. Control (SEQ ID NO:11), RBM38, and eIF4E peptides were added at a concentration of 375 nM and then 7.5 μg of PEP1 was added to each peptide (20:1). The complexes were incubated for 20 minutes at room temperature and then added dropwise to cells. Cell media was changed every three days until colonies were visible. The cells were fixed and then stained with crystal violet.
# In order to test the effect of a combination treatment comprising peptides of the present invention and a chemotherapeutic agent on cancer cell colony formation, MCF7 cells were seeded in 6-well plates at a density of 1×10^3 cells per well. The following day, cells were treated with peptides. In order to form stable complexes with PEP1, 100 μL of serum-free DMEM was added to individual Eppendorf tubes. Control, RBM38, eIF4E, and peptide-8 peptides were added at a concentration of 375 nM and then 7.5 μg of PEP1 was added to each peptide (20:1). The complexes were incubated for 20 minutes at room temperature and then added dropwise to cells. 20 minutes after addition of peptide complexes, 3.125 ng/mL doxorubicin was added to the cells. Cell media was changed every three days until colonies were visible. The cells were fixed and then stained with crystal violet.
# as §1, with “34C, MCF7” for “34D, RKO”, “1×10^3” for “2×10^3”, “Pen-Ctrl” for “Pen-Ctrl, 5 μM Pen-Pep23,”, “Pen-Pep23.” for “Pen-Pep8.”, “6.25” for “3.125”
# [4] = tested on: MIA-PaCa-2 pancreatic cancer cells; assay: MIA-PaCa-2 cell colony formation assay (peptides); format: cell-based, human; conditions: miaPaCa2 cells (mutant p53); 10 μM for 20 minutes then 0.25 ng/mL doxorubicin 18 hours (FIG. 37D)
# Excerpt: […] […] After colonies formed they were fixed (i.e., using 7:1 MeOH:glacial acetic acid) and stained with crystal violet.
# p53 [5] = assay: Western blot for p53 and downstream targets in RKO cells treated with peptides; format: cell-based, human
# eIF4E (His-tagged) = eIF4E (His-tagged) (Homo sapiens, UniProt P06730); assay: Pulldown of His-tagged eIF4E by peptides bound to TentaGel resin; format: binding; conditions: linear and cyclized Pep8 on TentaGel resin; 2 μg purified eIF4E overnight (FIG. 36A)
# Experimental: The peptides bound to Tentagel™ resin were incubated with His-eIF4E overnight and then washed extensively before being eluted with SDS-PAGE lysis buffer followed by Western blot assay for His-eIF4E. Lane #1: peptide-8 (SEQ ID NO:1); Lane #2: Cyc-8 peptide (SEQ ID NO:5); Lane #3: kAmi-8 peptide (SEQ ID NO:8); Lane #4: Ami-8 peptide (SEQ ID NO:7).
# For the experiments shown in FIG. 36A, linear and cyclized versions of Pep8 (i.e., peptides having the amino acid sequences set forth in SEQ ID NOS:1, 5, 7, and 8) were synthesized and bound to TentaGel resin. Resin was washed 3× with 1× lysis buffer, and then incubated with 1× lysis buffer+0.3% BSA for 1 hour while rotating in a cold room. Next, resin was incubated with 1× lysis buffer+0.3% BSA+2 μg purified eIF4E (His-tagged) overnight. Next, resin was washed with 1× lysis buffer+0.3% BSA 3 times, followed by washing with 1× lysis buffer with no Triton X-100 three times. Finally, elution was performed with 1×SDS-loading buffer (70 μl) to load all onto a 12% SDS-PAGE gel for Western blot for His-tagged eIF4E.
# MCF7 tumor spheres = assay: MCF7 tumor sphere assay; format: cell-based, human; conditions: MCF7 cells; 150 nM with 3 μg PEP1; 3.125 ng/mL doxorubicin; 7 days (FIG. 36C)
# Experimental: For the experiments shown in FIG. 34E, MCF7 cells were plated at a density of 20,000 cells per well using 2 mL Mammocult media in 6-well ultra-low adherent plates. The following day, cells were treated with Pen-Ctrl or Pen-Pep8 at a concentration of 5 μM. Peptides were added to each well for 20 minutes followed by 6.25 ng/mL doxorubicin. Cells were grown for 7 days and then the number of tumor spheres that were larger than 50 μm in diameter were counted (i.e., 20 10× photos were randomly taken and tumor spheres counted from the digital photos). For the graph shown in FIG. 34F, statistical analysis was performed using the student's t-test (n=3; *p≤0.05).
# For the experiments shown in FIG. 36C, MCF7 cells were plated at a density of 20,000 cells per well using 2 mL Mammocult media in 6-well ultra-low adherent plates. The following day, cells were treated with 150 nM Cyc-Ctrl or Cyc-Pep8 (SEQ ID NO:5). 150 nM Cyc-Ctr/Pep8 was incubated in 100 μL serum-free DMEM with 3 μg PEP1 for 25 minutes before being added to the cells. After 20 minutes, 3.125 ng/mL doxorubicin was added to the cells for 7 days. Cells were grown for 7 days and then tumor spheres were counted that were larger than 50 μm in diameter (i.e., 20 10× photos were randomly taken and tumor spheres were counted from the digital photos).
# Sequence of eIF4E (His-tagged) (P06730 whole entry): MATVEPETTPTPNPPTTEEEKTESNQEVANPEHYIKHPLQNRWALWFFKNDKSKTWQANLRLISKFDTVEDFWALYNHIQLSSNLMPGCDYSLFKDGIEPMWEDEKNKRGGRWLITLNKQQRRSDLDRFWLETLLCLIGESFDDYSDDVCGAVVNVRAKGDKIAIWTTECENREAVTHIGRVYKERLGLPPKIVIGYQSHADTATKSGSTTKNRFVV
substance,measurement,setting,value
"UUUGUUUUUUGUUU (listed as RNA, chemistry not given here) [6U/G]",p53 expression in cells expressing wild type p53,p53 [1],unregulated p53 expression
same,p53 expression in cells expressing mutant p53,mutant p53 (R248W),downregulated expression
"RQIKIWFQNRRMKWKKIGYQSHADTATKSGSTTKNRFVV [Pen-eIF4E, Penetratin fused to eIF4E peptide]",p53 expression (Western blot),p53 [2],induced p53 expression
same,"colony formation, sensitization to low-dose doxorubicin",RKO cells,sensitized MCF7 and RKO cells to low-dose doxorubicin
same,"cell colony formation, combination with doxorubicin",[3],striking synergistic effect
same,"colony formation, sensitization to low-dose doxorubicin",HaCaT cells,sensitized to low-dose doxorubicin
same,"colony formation, sensitization to low-dose doxorubicin",MCF7 cells,sensitized MCF7 and RKO cells to low-dose doxorubicin
same,"colony formation, sensitization to low-dose doxorubicin",[4],sensitized to low-dose doxorubicin
same,sensitization to low-dose etoposide (p53 Western blot),"p53 [5]; RKO cells, 1.5 μM for 20 minutes then 0.125 ng/mL etoposide 18 hours (FIG. 34I)",also to low-dose etoposide
same,sensitization to low-dose doxorubicin (p53 Western blot),"p53 [5]; RKO cells, 1.5 μM for 20 minutes then 6.25 ng/mL doxorubicin 18 hours (FIG. 34I)",sensitized to low-dose doxorubicin
same,p53 expression (Western blot),"p53 [5]; RKO cells, 2.5 μM, 18 hours (FIG. 32B)",induced p53 expression
same,protein expression of p53 and downstream target MDM2 (Western blot),"p53 [5]; RKO cells, 5 μM Penetratin fusion, 18 hours (FIG. 1F)",enhanced the protein expression of p53 and the downstream target MDM2
"cYPYAASPAc ([dC]YPYAASPA[dC]; disulfide 1-10 (inferred)) [Cyc-8, disulfide cyclic 10-mer of peptide-8]","binding of His-tagged eIF4E (pulldown, Western blot)",eIF4E (His-tagged),bound the most eIF4E
same,"tumor spheres larger than 50 μm in diameter, sensitization to low-dose doxorubicin",MCF7 tumor spheres,sensitized MCF7 tumor spheres to low-dose doxorubicin treatment
same,"p53 expression in combination with low-dose doxorubicin, cyclized versus linear peptide",p53 [5]; 6.25 ng/mL doxorubicin (FIG. 23E),stronger effect in combination with low-dose doxorubicin
same,"upregulation of p53 (Western blot), cyclized versus linear peptide","p53 [5]; 25 nM, 50 nM, 150 nM, 375 nM peptide (FIGS. 23A-23D)",stronger upregulation of p53
same,"p53 expression, potency compared to other forms of Pep8 (Western blot)","p53 [5]; RKO cells, 25 nM, 50 nM, 150 nM or 375 nM with PEP1 at 20:1 molar ratio, 18 hours (FIG. 36B)","increased potency compared to other forms of Pep8, as shown by an increase of p53 with the addition of only 25 nM of the peptide"
same,protein expression of p53 and downstream target MDM2 (Western blot),"p53 [5]; RKO cells, 375 nM peptide with 7.5 μg PEP1 (20:1), 18 hours (FIG. 1E)",enhanced the protein expression of p53 and the downstream target MDM2
same,protein expression of p53 and downstream target MDM2 (Western blot),"p53 [5]; RKO cells, 375 nM peptide with 7.5 μg PEP1 (20:1), 18 hours (FIG. 1E), listed as cyclized version of peptide-8",able to increase p53 protein expression

# From patent US11505574B2, “Modulation of P53 for the treatment of cancer” (THE REGENTS OF THE UNIVERSITY OF CALIFORNIA, priority 2016, dated 2022)
